The record followed here is patent US20080058208A1, “5,6-Cycloalkyl-7-Aminotriazolopyrimidines, their Preparation and their Use for Controlling Harmful Fungi, and Compositions Comprising these Compounds” (BASF Aktiengesellschaft, priority 2004, published 2008).

The test system of one experiment is Phytophthora infestans. The experiment is classed as cell-based. To be noted: 125 ppm; sporangia suspension; 18° C.; absorption at 405 nm on seventh day after inoculation.
A further experiment relates to Pythium species. Put plainly: Activity against Pythium species in the microtiter test. The experiment is classed as cell-based. To be noted: 125 ppm; zoospore suspension; 18° C.; absorption at 405 nm on seventh day after inoculation.

Take `Nc1c2c(nc3ncnn13)CCCC2` [I-2, 5,6,7,8-tetrahydro-[1,2,4]triazolo[5,1-b]quinazolin-9-ylamine]: the “relative growth of the pathogens, % of that of the untreated control” value with Phytophthora infestans came out at 6%; with Pythium species, 7%.
